Assay results published in US6617350B2, “Inhibitors of aspartyl protease” (priority 1999, dated 2003).

Tests used:
[1] = target: HIV-1 protease (Human immunodeficiency virus type 1 group M subtype B, UniProt P04585); experiment: biochemical; details: Table 12; HIV-1 protease; read-out: Ki
[2] = system: HIV-1 (strain IIIB); experiment: microbe, parasite or virus in culture; format: cell-based; details: Human immunodeficiency virus 1, IIIB, MT4, Table 12; anti-viral potency in MT-4 cells; read-out: IC50

SMILES	Ki [1] [nM]	IC50 [2] [nM]
COC(=O)NCCCCC(C)(C)CN(C[C@@H](O)[C@H](Cc1ccccc1)NC(=O)O[C@H]1CO[C@H]2OCC[C@H]21)S(=O)(=O)c1ccc2c(c1)OCO2 [Compound 248, (3R,3aS, 6aR)hexahydrofuro[2,3-b]furan-3-yl N-[(1S,2R)-3-((1,3-benzodioxol-5-ylsulfonyl)6-[(methoxycarbonyl)amino]-2,2-dimethylhexylamino)-1-benzyl-2-hydroxypropyl]carbamate]	< 1	≤ 100
CN(C)C(=O)NCCCCC(C)(C)CN(CC(O)C(Cc1ccccc1)NC(=O)OC1COC2OCCC12)S(=O)(=O)c1ccc2c(c1)OCO2 [Compound 249, (3R,3aS,6aR)hexahydrofuro[2,3-b]furan-3-yl N-(1S,2R)-3-[(1,3-benzodioxol-5-ylsulfonyl)(6-[(dimethylamino)carbonyl]amino-2,2-dimethylhexyl)amino]-1-benzyl-2-hydroxypropylcarbamate]	< 1	≤ 100
COC(=O)NCCCCC(C)(C)CN(C[C@@H](O)[C@H](Cc1ccccc1)NC(=O)O[C@H]1CO[C@H]2OCC[C@H]21)S(=O)(=O)c1ccc2c(c1)OCCO2 [Compound 250, (3R,3aS,6aR)hexahydrofuro[2,3-b]furan-3-yl N-[(1S,2R)-1-benzyl-3-((2,3-dihydro-1,4-benzodioxin-6-ylsulfonyl)6-[(methoxycarbonyl)amino]-2,2-dimethylhexylamino)-2-hydroxypropyl]carbamate]	< 1	≤ 100
CN(C)C(=O)NCCCCC(C)(C)CN(CC(O)C(Cc1ccccc1)NC(=O)OC1COC2OCCC12)S(=O)(=O)c1ccc2c(c1)OCCO2 [Compound 251, (3R,3aS,6aR)hexahydrofuro[2,3-b]furan-3-yl N-(1S,2R)-1-benzyl-3-[(2,3-dihydro-1,4-benzodioxin-6-ylsulfonyl)(6-[(dimethylamino)carbonyl]amino-2,2-dimethylhexyl)amino]-2-hydroxypropylcarbamate]	< 1	≤ 100
CC(=O)CCC(C)(C)CN(CC(O)[C@H](Cc1ccccc1)NC(=O)OC1COC2OCCC12)S(=O)(=O)c1ccc2c(c1)OCCO2 (stereo partly drawn) [Compound 252, (3R,3aS,6aR)-Hexahydrofuro[2,3-b]furan-3-yl N-((1S,2R)-3-(1,4-benzodioxan-6-sulfonyl)(2,2-dimethyl-5-oxohexyl)amino-1-benzyl-2-hydroxypropyl)carbamate]	< 1	≤ 100
CC(=O)CCC(C)(C)CN(CC(O)[C@H](Cc1ccccc1)NC(=O)OC1COC2OCCC12)S(=O)(=O)c1cccc(N)c1 (stereo partly shown) [Compound 253]	< 1	≤ 100
CC(=O)CCC(C)(C)CN(CC(O)[C@H](Cc1ccccc1)NC(=O)OC1COC2OCCC12)S(=O)(=O)c1cccc(N(C)C)c1 (stereo partly shown) [Compound 254]	< 1	≤ 100
CC(C)(CCCCNS(C)(=O)=O)CN(C[C@@H](O)[C@H](Cc1ccccc1)NC(=O)O[C@H]1CO[C@H]2OCC[C@H]21)S(=O)(=O)c1ccc2c(c1)OCO2 [Compound 255, (3R,3aS,6aR)hexahydrofuro[2,3-b]furan-3-yl N-[(1S,2R)-3-((1,3-benzodioxol-5-ylsulfonyl)2,2-dimethyl-6-[(methylsulfonyl)amino]hexylamino)-1-benzyl-2-hydroxypropyl]carbamate]	< 1	≤ 100
CC(C)(CCCCNS(C)(=O)=O)CN(C[C@@H](O)[C@H](Cc1ccccc1)NC(=O)O[C@H]1CO[C@H]2OCC[C@H]21)S(=O)(=O)c1ccc2c(c1)OCCO2 [Compound 256, (3R,3aS,6aR)hexahydrofuro[2,3-b]furan-3-yl N-[(1S,2R)-1-benzyl-3-((2,3-dihydro-1,4-benzodioxin-6-ylsulfonyl)2,2-dimethyl-6-[(methylsulfonyl)amino]hexylamino)-2-hydroxypropyl]carbamate]	< 1	≤ 100
CC(C)(CCCN)CN(CC(O)C(Cc1ccccc1)NC(=O)OC1COC2OCCC12)S(=O)(=O)c1ccc2c(c1)OCO2 [Compound 257, 3R,3aS,6aR)hexahydrofuro[2,3-b]furan-3-yl N-(1S,2R)-3-[(5-amino-2,2-dimethylpentyl)(1,3-benzodioxol-5-ylsulfonyl)amino]-1-benzyl-2-hydroxypropylcarbamate]	< 1	100 to 500
CNc1cccc(S(=O)(=O)N(C[C@@H](O)[C@H](Cc2ccccc2)NC(=O)O[C@H]2CO[C@H]3OCC[C@H]32)CC(C)(C)CCCN)c1 [Compound 258, (3R,3aS,6aR)hexahydrofuro[2,3-b]furan-3-yl N-[(1S,2R)-3-((5-amino-2,2-dimethylpentyl)[3-(methylamino)phenyl]sulfonylamino)-1-benzyl-2-hydroxypropyl]carbamate]	< 1	100 to 500
COc1ccc(S(=O)(=O)N(CC(O)[C@H](Cc2ccccc2)NC(=O)OC2COC3OCCC23)CC(C)(C)CCCC(C)=O)cc1 (stereo partly shown) [Compound 259]	< 1	≤ 100
C/C(CCC(C)(C)CN(CC(O)[C@H](Cc1ccccc1)NC(=O)OC1COC2OCCC12)S(=O)(=O)c1ccc2c(c1)OCO2)=N\O (stereo partly drawn) [Compound 260, (3R,3aS,6aR)-Hexahydrofuro[2,3-b]furan-3-yl N-((1S,2R)-1-benzyl-3-(2,2-dimethyl-5-hydroxyiminohexyl)[(3,4-methylenedioxyphenyl)sulfonyl]amino-2-hydroxypropyl)carbamate]	< 1	≤ 100
CO/N=C(\C)CCC(C)(C)CN(CC(O)[C@H](Cc1ccccc1)NC(=O)OC1COC2OCCC12)S(=O)(=O)c1ccc2c(c1)OCO2 (stereo partly drawn) [Compound 261, (3R,3aS,6aR)-Hexahydrofuro[2,3-b]furan-3-yl-N-((1S,2R)-1-benzyl-3-(2,2-dimethyl-5-methoxyiminohexyl)[(3,4-methylenedioxyphenyl)sulfonyl]amino-2-hydroxypropyl)carbamate]	< 1	≤ 100
CC(C)(CCCN)CN(CC(O)C(Cc1ccccc1)NC(=O)OC1COC2OCCC12)S(=O)(=O)c1ccc2c(c1)OCCO2 [Compound 262, (3R,3aS,6aR)hexahydrofuro[2,3-b]furan-3-yl N-(1S,2R)-3-[(5-amino-2,2-dimethylpentyl)(2,3-dihydro-1,4-benzodioxin-6-ylsulfonyl)amino]-1-benzyl-2-hydroxypropylcarbamate]	< 1	100 to 500
COC(=O)NCCCC(C)(C)CN(C[C@@H](O)[C@H](Cc1ccccc1)NC(=O)O[C@H]1CO[C@H]2OCC[C@H]21)S(=O)(=O)c1ccc2c(c1)OCO2 [Compound 263, (3R,3aS,6aR)hexahydrofuro[2,3-b]furan-3-yl N-[(1S,2R)-3-((1,3-benzodioxol-5-ylsulfonyl)5-[(methoxycarbonyl)amino]-2,2-dimethylpentylamino)-1-benzyl-2-hydroxypropyl]carbamate]	< 1	≤ 100
CNc1cccc(S(=O)(=O)N(C[C@@H](O)[C@H](Cc2ccccc2)NC(=O)O[C@H]2CO[C@H]3OCC[C@H]32)CC(C)(C)CCCNC(=O)OC)c1 [Compound 264, (3R,3aS,6aR)hexahydrofuro[2,3-b]furan-3-yl N-[(1S,2R)-1-benzyl-2-hydroxy-3-(5-[(methoxycarbonyl)amino]-2,2-dimethylpentyl[3-(methylamino)phenyl]sulfonylamino)propyl]carbamate]	< 1	≤ 100
COC(=O)NCCCC(C)(C)CN(C[C@@H](O)[C@H](Cc1ccccc1)NC(=O)O[C@H]1CO[C@H]2OCC[C@H]21)S(=O)(=O)c1ccc2c(c1)OCCO2 [Compound 265, (3R,3aS,6aR)hexahydrofuro[2,3-b]furan-3-yl N-[(1S,2R)-1-benzyl-3-((2,3-dihydro-1,4-benzodioxin-6-ylsulfonyl)5-[(methoxycarbonyl)amino]-2,2-dimethylpentylamino)-2-hydroxypropyl]carbamate]	< 1	≤ 100
CN(C)C(=O)NCCCC(C)(C)CN(CC(O)C(Cc1ccccc1)NC(=O)OC1COC2OCCC12)S(=O)(=O)c1ccc2c(c1)OCO2 [Compound 266, (3R,3aS,6aR)hexahydrofuro[2,3-b]furan-3-yl N-(1S,2R)-3-[(1,3-benzodioxol-5-ylsulfonyl)(5-[(dimethylamino)carbonyl]amino-2,2-dimethylpentyl)amino]-1-benzyl-2-hydroxypropylcarbamate]	< 1	≤ 100
CNc1cccc(S(=O)(=O)N(C[C@@H](O)[C@H](Cc2ccccc2)NC(=O)O[C@H]2CO[C@H]3OCC[C@H]32)CC(C)(C)CCCNC(=O)N(C)C)c1 [Compound 267, (3R,3aS,6aR)hexahydrofuro[2,3-b]furan-3-yl N-[(1S,2R)-1-benzyl-3-((5-[(dimethylamino)carbonyl]amino-2,2-dimethylpentyl)[3-(methylamino)phenyl]sulfonylamino)-2-hydroxypropyl]carbamate]	< 1	≤ 100
CN(C)C(=O)NCCCC(C)(C)CN(CC(O)C(Cc1ccccc1)NC(=O)OC1COC2OCCC12)S(=O)(=O)c1ccc2c(c1)OCCO2 [Compound 268, (3R,3aS,6aR)hexahydrofuro[2,3-b]furan-3-yl N-(1S,2R)-1-benzyl-3-[(2,3-dihydro-1,4-benzodioxin-6-ylsulfonyl)(5-[(dimethylamino)carbonyl]amino-2,2-dimethylpentyl)amino]-2-hydroxypropylcarbamate]	< 1	≤ 100
CC(C)(CCCNS(C)(=O)=O)CN(C[C@@H](O)[C@H](Cc1ccccc1)NC(=O)O[C@H]1CO[C@H]2OCC[C@H]21)S(=O)(=O)c1ccc2c(c1)OCO2 [Compound 269, (3R,3aS,6aR)hexahydrofuro[2,3-b]furan-3-yl N-[(1S,2R)-3-((1,3-benzodioxol-5-ylsulfonyl)2,2-dimethyl-5-[(methylsulfonyl)amino]pentylamino)-1-benzyl-2-hydroxypropyl]carbamate]	< 1	≤ 100
CNc1cccc(S(=O)(=O)N(CC(O)C(Cc2ccccc2)NC(=O)OC2COC3OCCC23)CC(C)(C)CCCNS(C)(=O)=O)c1 [Compound 270, (3R,3aS,6aR)hexahydrofuro[2,3-b]furan-3-yl N-[(1S,2R)-1-benzyl-3-((5-[(methylsulfonyl]amino-2,2-dimethylpentyl)[3-(methylamino)phenyl]sulfonylamino)-2-hydroxypropyl]carbamate]	< 1	≤ 100
